# Key:
# [1] = system: CD1 mice treated with LPS/D-GalN; assay: Survival of mice with LPS/D-GalN induced acute liver failure; type: in vivo, mouse; details: 50 mg/kg IP three hours prior to LPS/D-GalN
# Text: Six to eight week old CD1 mice are obtained from Charles River. Animals were housed in Wayne State University or University of Padova, Vallisneri Interdepartmental Complex animal quarters until the time of the experiment. Food was withdrawn the night before the day of the experiment. All experiments were approved by the Animal Investigation Committee of Wayne State University or by the Authority of the University of Padova and authorized by the Italian Ministry of Health.
# Animals were divided into two groups. Group one animals consisted of both male and female mice injected with LPS and D-GalN to induce hepatic failure. Survival was monitored post LPS/D-GalN administration and the time of injection was considered to be zero hour (t=0). Group two animals consisted of mice injected with MSO three hours prior to LPS and D-GalN administration. […] […] For analysis of the effect of MSO treatment on the cell death pathway activated by the Fas ligand, mice were pre-treated with MSO as described above, and at time zero were injected with Jo2 antibody ([…]).
# Animals were monitored continuously post LPS/D-GalN or Jo2 administration. […] The time of death was recorded as hours after LPS/D-GalN injection. Fisher's exact test was used to determine two-tailed p values for the statistical between the treated and untreated groups.
# glutamine synthetase = molecular target: T1, glutamine synthetase (Mus musculus, UniProt P15105); assay: Glutamine synthetase activity in liver extracts of treated mice; type: in vivo
# T1 construct: liver homogenates were prepared from liver tissue excised and immediately homogenized; from tissue; host or cells: mouse liver homogenate supernatant
# T1 sequence (P15105 2-373 limits assumed): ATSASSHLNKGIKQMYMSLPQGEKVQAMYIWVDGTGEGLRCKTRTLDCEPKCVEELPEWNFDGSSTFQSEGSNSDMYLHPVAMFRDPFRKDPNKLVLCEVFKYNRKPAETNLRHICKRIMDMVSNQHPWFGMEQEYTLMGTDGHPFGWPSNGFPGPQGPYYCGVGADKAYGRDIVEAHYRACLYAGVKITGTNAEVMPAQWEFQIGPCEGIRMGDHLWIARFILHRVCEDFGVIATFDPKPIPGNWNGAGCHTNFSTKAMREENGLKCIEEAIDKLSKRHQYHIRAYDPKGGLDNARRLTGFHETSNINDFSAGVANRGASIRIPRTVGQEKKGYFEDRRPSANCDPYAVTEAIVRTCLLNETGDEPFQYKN
# Procedure: (§1) Tissue and plasma were collected from male mice, which were divided into two groups. One group was injected with saline three hours prior to LPS/D-GalN injections. The second group was given MSO three hours prior to being injected with LPS/D-GalN. Control mice (t=0) were treated with MSO or saline for 3 hours and then euthanized (not exposed to LPS/D-GalN). After LPS/D-GalN injection at time zero, tissue and plasma samples were collected at one-hour time intervals from 1 to 5 hours.
# To analyze enzyme activities liver homogenates were prepared from liver tissue excised and immediately homogenized in ice-cold buffer consisting of 250 mM sucrose, 10 mM Tris and 0.1 mM EGTA with protease inhibitor cocktail (Sigma #P8340). The homogenized tissue was centrifuged at 2375×g for 5 min. The tissue supernatant fraction was frozen on dry ice and stored at −80° C.
# Glutamine synthetase was assayed as described by Meister, A. Glutamine synthetase from mammalian tissues. […] The reaction with the substrates glutamine and hydroxylamine was stopped using ferric chloride stop solution (0.37 M FeCl3, 0.67 M HCl, 0.20 M TCA) and the colorimetric product formed—γ-glutamyl hydroxamate—was measured at 535 nm. The absorbance values were converted to activities by comparison to a standard curve of pure glutamyl hydroxamate (a generous gift from Arthur J. Cooper, Department of Biochemistry and Molecular Biology, New York Medical College).
# [2] = system: 40 different mouse cytokines
# Procedure: as §1
# For experiments analyzing plasma cytokines, the male mice from the groups described above were anesthetized using Avertin (solution of 15.5 mis of tert-amyl alcohol—Sigma #240486 and 25 g of 2-2-2 tribromoethanol—Sigma #T48402) and blood was collected by cardiac puncture. Plasma was obtained by transferring blood to plasma separator tubes containing lithium heparin (BD Microtainer tubes). Plasma samples were immediately frozen on dry ice and stored at −80° C.
# Mouse cytokine array kits (Proteome Profiler Arrays—cat #ARY006) were obtained from R&D Systems and used according to the manufacturer's guidelines. Each array, which consisted of a nitrocellulose membrane spotted with 40 different mouse cytokines, was tested with two hundred microliters of plasma from one animal. Each condition was duplicated—two mice for each group. Control blots were from plasma collected from two untreated mice (not injected with LPS/D-GalN and/or MSO). For untreated and MSO-treated groups, plasma was collected at either 1 hour or 3 hours after LPS/D-GalN administration. The blots were developed using the Immun-Star WesternC Kit (BIO-RAD cat #170-5070) on a BIO-RAD imager. The corresponding Quantity One software of the BIO-RAD imager was used to quantify the signal obtained on the blots.
# peritoneal macrophages = details: 9 mM MSO, over the time course of the macrophage experiments
# Procedure: Macrophages coordinate the early phases of LPS-induced inflammatory response, through the synthesis of TNF-α and other cytokines. In vitro experiments were conducted to directly test if MSO inhibits TNF-α production on LPS-stimulated macrophages obtained from mouse peritoneum. Macrophages were triggered with LPS with or without MSO, wherein the MSO was added either three hours before, one hour after, or at the same time as LPS. Four hours after LPS addition, TNF-α in the culture supernatant was quantitated by ELISA, as described in Methods.
# [3] = one hour after LPS/D-GalN, versus LPS/D-GalN alone
# [4] = three hours after LPS/D-GalN, same reduction in LPS/D-GalN animals without MSO
smiles,measurement,setting,value
"CS(=N)(=O)CC[C@H](N)C(=O)O (some centres unmarked) [MSO, methionine sulfoximine]",female survival,"[1]; female CD1 mice, n=14, without pretreatment 27%, p<0.005",81%
same,male survival,"[1]; male CD1 mice, n=21, without pretreatment 19%, p<0.002",71%
same,glutamine synthetase activity relative to animals pre-treated with saline,"glutamine synthetase; liver extracts, 50 mg/kg IP three hours prior to LPS/D-GalN, all time points",less than 10%
same,inhibition of glutamine synthetase in the liver,glutamine synthetase; long term MSO treatment,90%
same,reduction of IL-6 in plasma,[2]; [3],> 50%
same,reduction of TNF-α in plasma,[2]; [3],> 50%
same,I-TAC in plasma,[2]; three hours after LPS/D-GalN,not detected
same,JE in plasma,[2]; three hours after LPS/D-GalN,either reduced or not detected
same,KC values,[2]; three hours after LPS/D-GalN,same as in LPS/D-GalN animals
same,M-CSF values,[2]; three hours after LPS/D-GalN,same for all three groups
same,MCP-5 in plasma,[2]; three hours after LPS/D-GalN,increased
same,MIG in plasma,[2]; three hours after LPS/D-GalN,not detected
same,MIP-1a in plasma,[2]; three hours after LPS/D-GalN,either reduced or not detected
same,MIP-1b in plasma,[2]; three hours after LPS/D-GalN,either reduced or not detected
same,MIP-2 in plasma,[2]; three hours after LPS/D-GalN,increased
same,RANTES in plasma,[2]; three hours after LPS/D-GalN,either reduced or not detected
same,TIMP-1 values,[2]; three hours after LPS/D-GalN,reduced to approximately control values
same,TNF-α induction by LPS/D-GalN,[2]; three hours after LPS/D-GalN,abrogated
same,induction of IFN-γ by LPS/D-GalN,[2]; three hours after LPS/D-GalN,abolished
same,induction of IL-1ra by LPS/D-GalN,[2]; three hours after LPS/D-GalN,abolished
same,induction of IL-6 by LPS/D-GalN,[2]; three hours after LPS/D-GalN,abolished
same,induction of IL-16 by LPS/D-GalN,[2]; three hours after LPS/D-GalN,abolished
same,induction of IL-23 by LPS/D-GalN,[2]; three hours after LPS/D-GalN,abolished
same,reduction of IL-1a level,[2]; three hours after LPS/D-GalN,more than 50%
same,reduction of IP-10,[2]; three hours after LPS/D-GalN,more than 50%
same,number of elevated cytokines reduced by pretreatment,"[2]; three hours after LPS/D-GalN, 22 of the 40 cytokines elevated",20
same,reduction in C5a,[2]; [4],10-20%
same,reduction in sICAM,[2]; [4],10-20%
same,effect on cell viability (trypan blue),peritoneal macrophages,no effect

# — US9119821B2, “Use of methionine sulfoximine to treat acute liver failure and other diseases caused by an inflammatory cytokine response” (priority 2010, dated 2015)
